From patent US20090041876A1, “OIL/FAT-CONTAINING COMPOSITION FOR SUPPRESSION OF CARCINOGENESIS” (KANEKA CORPORATION, priority 2005, published 2009) come the findings set out here.

One series concerns GST-P-positive cell foci. The series can be described thus: liver medium-term bioassay (Ito test): quantitative analysis of GST-P-positive cell foci in rat liver. Format: in vivo. As to the method:
In order to examine the effect of the MCT solution of Example 1 on carcinogenesis, a search using a liver medium-term bioassay (Ito test) was performed. This test method is one of the two-step carcinogenesis models using rodents and is employed for rat liver. This test method has been used to search for 313 or more chemical substances, and is considered to be a reliable and useful method of searching for carcinogens or carcinogenesis-suppressing substances. Therefore, this test is accepted as an alternative to a conventional long-term carcinogenicity test in the Japan/US/EU Trilateral International Conference on Harmonization of Technical Requirements for Registration of Pharmaceuticals for Human Use (ICH). […]
(§1) After a lapse of the third week of the experiment (one week after the start of test substance administration), partial hepatectomy was performed for all the animals, and lesions in the livers were amplified. […] The areas of the liver sections and the numbers and areas of GST-P-positive cell foci with diameters of 0.2 mm or more were measured using a pathological specimen image analyzer IPAP-WIN (Sumika Technoservice Corporation), and then the areas and numbers per cm^2 of the liver sections were calculated to perform a quantitative analysis. […]

Series [1] is described as follows: liver medium-term bioassay (Ito test): liver weights, general status, light and electron microscopical examination of livers. Conditions: F344 male rats, DEN +, 500 ppm with feed (positive control). Format: in vivo, rat. As to the method: Diethylnitrosamine (DEN) was administered intraperitoneally to the rats once at a dose of 200 mg/kg for the purpose of an initiation treatment for liver carcinogenesis, and from two weeks after the administration, a test substance, i.e., the MCT solution was forcibly administered orally at doses of 0 (control group), 150, 300, and 600 mg/kg once a day seven times/week for six weeks (Groups 1 to 4). The doses of the MCT solution used in this test (150, 300, and 600 mg/kg) correspond to 45, 90, and 180 mg/kg body weight in terms of a licorice extract serving as an effective ingredient. In addition, phenobarbital sodium salt (S. PB) was administered with a feed to a positive control group at a concentration of 500 ppm (Group 5). […]
as §1

Where a name gives a salt, the structure may show the parent alone. Marks after values point to notes of the source that are not given here.

As to `CCC1(c2ccccc2)C(=O)NC(=O)NC1=O` [Phenobarbital Sodium, phenobarbital sodium salt], the “number and area per unit area of GST-P-positive cell foci versus control” value in the series on GST-P-positive cell foci (Group 5, DEN +, 500 ppm with feed) was “evidently high levels”. Also, in the series with GST-P-positive cell foci (rat liver, DEN +, 500 ppm with feed (positive control)), the “GST-P-positive cell foci, Area” value is on record as 0.541 ± 0.160** mm^2/cm^2. Moreover, in series [1], the “Liver weight, Absolute weight” value is on record as 9.2781 ± 0.4913 g and the “Liver weight, Relative weight” value was determined as 3.3527 ± 0.1032 %.
